Source: patent US10835500B2, “Medicament for accelerated wound healing” (Symrise AG, priority 2014, dated 2020)
Entries after “also recorded” stand apart in the source; their conditions may differ. Like-named read-outs stand apart in the source and are kept apart here.

Test system: HaCaT cells
Test: Calcium imaging in HaCaT cells
Assay type: cell-based, human
Conditions: for calcium signals on repeated stimulation: repeated application (500 μM in FIG. 9); for EC50: calcium signal amplitude, read-out: ECR50R value
Experimental: In the fourth application, saturation occurred at approx. 500 μM (FIG. 9d). The ECR50R value was 430 μM of Sandalore® in the first application and 112 μM of Sandalore® in the fourth application.
The Sandalore®-induced signal cascade in HaCaT cells and primary keratinocytes was pharmacologically characterized using the calcium imaging technique and specific blockers of signal cascade proteins. An investigation was first conducted in order to determine whether the calcium signals are caused by calcium inflow from the extracellular space. For this purpose, a calcium-free extracellular solution was used with a calcium chelator (EGTA) added. […] In order to investigate the role of adenylyl cyclase, the specific blockers SQ-22536 and MDL-12330A were used. […] The efficacy of the blockers was tested in this case with histamine, which activated the PLC signalling pathway (FIG. 11c). […]
In order to characterize the antagonists, HaCaT cells were first repeatedly stimulated with Sandalore® (1 mM). On the third application, costimulation (1:1) with Sandalore® and one of the antagonists took place. […] Based on this, dose-dependent characterization of inhibition was to be carried out. For this purpose, Sandalore® and the antagonists were costimulated with different concentrations.
Effect of the OR2AT4 ligand Sandalore® on intracellular calcium concentration of cultivated keratinocytes. […] 100 μM of ATP was used at the end of each measurement as a positive control stimulus. Right: Quantitative evaluation of calcium signals in 4-time application of Sandalore® (500 μM). Shown are the mean values of the individual applications including standard error. Mann-Whitney U test. *: p<0.05. C) and D): dose-dependent activation of HaCaT cells in calcium imaging experiments. Shown are the mean amplitudes including standard error at various concentrations in the first (C) and fourth (D) Sandalore® application. Number of cells measured: 0.0125 mM (39), 0.025 mM (30), 0.1 mM (46), 0.5 mM (34), 1 mM (63), 2 mM (41), 10 mM (36).
A) Representative calcium imaging traces of HaCaT cells (left) and primary keratinocytes (right) incubated with the gap junction blocker 1-octanol (500 μM) and then repeatedly stimulated with Sandalore® (500 μM, horizontal bars) (blue trace). […] 100 μM of ATP was used at the end of each measurement as a positive control stimulus. Quantitative evaluation of HaCaT cells (B) and primary keratinocytes (C) incubated with the gap junction blockers 1-octanol (500 μM) or carbenoxolone (10 μM) and then repeatedly stimulated with Sandalore® (500 μM) or Lyral (1 mM) in calcium imaging experiments. Shown are the mean values of the individual applications including standard error relative to the control measurements (Sandalore® application without blocker). Mann-Whitney U test. Number of cells measured: Sandalore®+1-octanol (HaCaT (110), keratinocytes (26)); Sandalore®+carbenoxolone: HaCaT (74); Lyral+carbenoxolone: HaCaT (43). ***: p<0.001.
Pharmacological characterization of Sandalore®-induced signal cascade in human keratinocytes. A)-D). Shown are representative calcium imaging traces of primary keratinocytes in the presence of a blocker (blue). The horizontal bars correspond to the application times. 100 μM of ATP was used at the end of each measurement as a positive control stimulus. A) Measurement with calcium-free extracellular solution (+10 mM EGTA). B) Measurement with the adenylyl cyclase blocker SQ-22536 (100 μM). C) Use of the phospholipase-C blocker U-73122 (10 μM). 100 μM of histamine was taken as a positive control. D) Measurement with the CNG channel blocker L-cis-diltiazem (150 μM). E) Overview of pharmacological measurement of HaCaT cells and primary keratinocytes (Kera). The mean amplitudes relative to the control measurements (dashed line) are indicated. MDL-12330A (40 μM). […]

Which results are given for `CC(=O)CCc1ccc(O)cc1` [Oxyphenylon]?
inhibitory action on Sandalore-induced calcium signals (Sandalore 500 μM + antagonist 100 μM): disappeared completely; amplitude heights, % of the control amplitudes (Sandalore 500 μM + antagonist 250 μM): 39%; calcium signals, % of the control amplitude (Sandalore without antagonists) (Sandalore 500 μM + antagonist 500 μM): 8%; blocking of Sandalore-induced calcium signals (antagonist 500 μM, Sandalore 750 μM): decreased; inhibition of Sandalore-induced calcium signals (antagonist 500 μM, Sandalore 1 mM): completely eliminated; IC50 (inhibition of calcium signals induced by 500 μM Sandalore, read-out: IC50 values (mean inhibitory concentrations)): 174 µM; effect on Sandalore-induced calcium signals on coapplication (third application, costimulation 1:1 with Sandalore 1 mM): significant reduction

For `CC1=CCC(CCC(C)CO)C1(C)C` (stereo not shown) [Brahmanol®], which “calcium signals on repeated stimulation” value (HaCaT cells) is on record?
Its value is “significant sensitization”.

How did the “share of cells repeatedly stimulated” value (HaCaT cells, calcium imaging) turn out when `CC1=CCC(CCC(C)C(C)O)C1(C)C` (stereo not shown) [Sandalore®] was run?
Its value is 80-90%.

And the “calcium signals on repeated stimulation” value (HaCaT cells)?
The value was “significant sensitization; also recorded: induced calcium signals”.

And the “calcium signals on repeated stimulation” value (HaCaT cells, listed as Sandalore)?
Its value is “significant sensitization”.

What about the “concentration at which dose-dependent activation begins” value (amplitude of the first application) of the same compound?
Its value is 100 µM.

What about the EC50 (first application) of the same compound?
The EC50 was 430 µM.

What about the EC50 (fourth application) of the same compound?
Its EC50 is 112 µM.

And the “concentration from which saturation is reached” value (first application)?
Its value is “approx. 2 mM”.

What about the “concentration at which saturation occurred” value (fourth application) of the same compound?
Its value is “approx. 500 μM”.
